Eleven compounds from patent publication US20120264735A1 (priority 2009, published 2012) can be followed below.

SMILES strings stand for the structures. pIC50: −log10 of the molar value.

Usually pIC50 stands for the negative decadic logarithm of the IC50, by convention in mol/L.

T1 sequence (P08581 25-1390): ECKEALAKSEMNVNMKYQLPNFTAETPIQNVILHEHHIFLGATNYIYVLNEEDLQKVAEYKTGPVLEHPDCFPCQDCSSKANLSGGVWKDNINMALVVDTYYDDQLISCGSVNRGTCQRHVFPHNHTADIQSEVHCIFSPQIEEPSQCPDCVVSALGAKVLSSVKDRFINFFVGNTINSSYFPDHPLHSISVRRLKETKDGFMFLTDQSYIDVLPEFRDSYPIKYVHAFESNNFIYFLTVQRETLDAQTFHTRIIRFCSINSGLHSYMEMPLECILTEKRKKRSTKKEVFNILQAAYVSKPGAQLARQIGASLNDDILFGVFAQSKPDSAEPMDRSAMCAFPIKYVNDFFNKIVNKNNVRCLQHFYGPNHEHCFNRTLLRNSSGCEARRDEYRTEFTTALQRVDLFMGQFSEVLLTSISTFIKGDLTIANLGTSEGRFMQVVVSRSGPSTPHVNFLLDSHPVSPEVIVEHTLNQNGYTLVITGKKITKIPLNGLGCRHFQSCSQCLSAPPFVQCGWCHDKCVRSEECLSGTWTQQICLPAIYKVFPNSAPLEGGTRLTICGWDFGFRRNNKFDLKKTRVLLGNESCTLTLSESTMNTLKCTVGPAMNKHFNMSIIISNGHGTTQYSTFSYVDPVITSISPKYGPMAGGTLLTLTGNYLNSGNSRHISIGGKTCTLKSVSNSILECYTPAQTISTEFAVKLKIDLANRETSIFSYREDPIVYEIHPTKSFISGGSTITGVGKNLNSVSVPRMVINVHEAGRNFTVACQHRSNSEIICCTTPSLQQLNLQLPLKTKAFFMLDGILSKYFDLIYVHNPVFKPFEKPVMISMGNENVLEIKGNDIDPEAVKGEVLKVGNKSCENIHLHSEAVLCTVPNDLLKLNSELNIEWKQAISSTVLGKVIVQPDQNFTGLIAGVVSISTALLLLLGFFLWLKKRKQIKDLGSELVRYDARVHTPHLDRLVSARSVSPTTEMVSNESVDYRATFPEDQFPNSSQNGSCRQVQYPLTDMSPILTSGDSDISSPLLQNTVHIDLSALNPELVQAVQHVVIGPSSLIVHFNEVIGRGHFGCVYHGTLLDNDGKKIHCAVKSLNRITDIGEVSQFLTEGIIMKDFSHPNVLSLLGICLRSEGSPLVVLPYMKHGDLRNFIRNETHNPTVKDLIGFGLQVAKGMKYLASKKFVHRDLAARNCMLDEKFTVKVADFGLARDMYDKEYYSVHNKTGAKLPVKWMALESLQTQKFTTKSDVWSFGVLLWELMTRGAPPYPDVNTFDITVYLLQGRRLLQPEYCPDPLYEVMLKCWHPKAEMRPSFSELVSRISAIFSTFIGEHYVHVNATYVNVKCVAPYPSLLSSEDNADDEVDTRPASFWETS

This assay addresses T1, c-Met kinase (recombinant c-Met) (Homo sapiens, UniProt P08581).
T1 construct: 0.27 nM recombinant c-Met
The assay can be described thus: In vitro kinase assay I (homogeneous time-resolved fluorescence tyrosine kinase assay). It counts as biochemical. The method in brief:
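Biotinylated peptide (0.5 μM) phosphorylated by 0.2 nM recombinant c-Met with 50 μM MgATP, 60 min at room temperature, pH 7.4, 5% DMSO. EDTA stop; HTRF read with Eu-anti-phosphotyrosine antibody and streptavidin-APC. IC50 from 4-parameter logistic fit.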
On to `CCc1cnc(-c2cccc(C(C)c3nn(-c4ccc(F)c(F)c4)ccc3=O)c2)nc1` (single isomer, unassigned) [Example 230, 1-(3,4-difluorophenyl)-3-{(1S or R)-1-[3-(5-ethylpyrimidin-2-yl)phenyl]ethyl}pyridazin-4(1H)-one], for which the pIC50 was 6.00 to 7.00.

In the case of `CCc1cnc(-c2cccc(C(C)c3nn(-c4ccc(F)c(F)c4)ccc3=O)c2)nc1` (single isomer, unassigned) [Example 231, 1-(3,4-difluorophenyl)-3-{(1R or S)-1-[3-(5-ethylpyrimidin-2-yl)phenyl]ethyl}pyridazin-4(1H)-one], the pIC50 was > 7.00.

`CC(c1cccc(-c2ncc(-c3cnn(C)c3)cn2)c1)c1nn(-c2cnn(C)c2)ccc1=O` (single isomer, unassigned) [Example 232, 1-(1-methyl-1H-pyrazol-4-yl)-3-[(1S or R)-1-{3-[5-(1-methyl-1H-pyrazol-4-yl)pyrimidin-2-yl]phenyl}ethyl]pyridazin-4(1H)-one]: the pIC50 is > 7.00.

Regarding `CC(c1cccc(-c2ncc(-c3cnn(C)c3)cn2)c1)c1nn(-c2cnn(C)c2)ccc1=O` (single isomer, unassigned) [Example 233, 1-(1-methyl-1H-pyrazol-4-yl)-3-[(1R or S)-1-{3-[5-(1-methyl-1H-pyrazol-4-yl)pyrimidin-2-yl]phenyl}ethyl]pyridazin-4(1H)-one], the pIC50 was > 7.00.

As to `CCn1cc(-n2ccc(=O)c(C(C)c3cccc(-c4ncc(-c5cnn(C)c5)cn4)c3)n2)cn1` (single isomer, unassigned) [Example 234, 1-(1-ethyl-1H-pyrazol-4-yl)-3-[(1S or R)-1-{3-[5-(1-methyl-1H-pyrazol-4-yl)pyrimidin-2-yl]phenyl}ethyl]pyridazin-4(1H)-one], the pIC50 was > 7.00.

As to `CCn1cc(-n2ccc(=O)c(C(C)c3cccc(-c4ncc(-c5cnn(C)c5)cn4)c3)n2)cn1` (single isomer, unassigned) [Example 235, 1-(1-ethyl-1H-pyrazol-4-yl)-3-[(1R or S)-1-{3-[5-(1-methyl-1H-pyrazol-4-yl)pyrimidin-2-yl]phenyl}ethyl]pyridazin-4(1H)-one], the pIC50 is > 7.00.

As for `CCc1cnc(-c2cccc(C(C)c3nn(-c4cnn(C)c4)ccc3=O)c2)nc1` (single isomer, unassigned) [Example 236, 3-{(1S or R)-1-[3-(5-ethylpyrimidin-2-yl)phenyl]ethyl}-1-(1-methyl-1H-pyrazol-4-yl)pyridazin-4(1H)-one], the pIC50 was > 7.00.

In the case of `CCc1cnc(-c2cccc(C(C)c3nn(-c4cnn(C)c4)ccc3=O)c2)nc1` (single isomer, unassigned) [Example 237, 3-{(1R or S)-1-[3-(5-ethylpyrimidin-2-yl)phenyl]ethyl}-1-(1-methyl-1H-pyrazol-4-yl)pyridazin-4(1H)-one], the pIC50 is > 7.00.

On to `CC(c1cccc(-c2ncc(-c3cnn(C)c3)cn2)c1)c1nn(-c2ccc(F)c(F)c2)ccc1=O` (single isomer, unassigned) [Example 238, 1-(3,4-difluorophenyl)-3-[(1S or R)-1-{3-[5-(1-methyl-1H-pyrazol-4-yl)pyrimidin-2-yl]phenyl}ethyl]pyridazin-4(1H)-one], for which the pIC50 was 6.00 to 7.00.

For `CC(c1cccc(-c2ncc(-c3cnn(C)c3)cn2)c1)c1nn(-c2ccc(F)c(F)c2)ccc1=O` (single isomer, unassigned) [Example 239, 1-(3,4-difluorophenyl)-3-[(1R or S)-1-{3-[5-(1-methyl-1H-pyrazol-4-yl)pyrimidin-2-yl]phenyl}ethyl]pyridazin-4(1H)-one], the pIC50 was > 7.00.

As for `CC(c1cccc(-c2ncc(-n3cnnc3)cn2)c1)c1nn(-c2cnn(C)c2)ccc1=O` (single isomer, unassigned) [Example 240, 1-(1-methyl-1H-pyrazol-4-yl)-3-[(1R or S)-1-{3-[5-(4H-1,2,4-triazol-4-yl)pyrimidin-2-yl]phenyl}ethyl]pyridazin-4(1H)-one], the pIC50 is 6.00 to 7.00.
